ChEMBL document CHEMBL2157872, “Trimeric purine nucleoside phosphorylase: exploring postulated one-third-of-the-sites binding in the transition state” (Bioorg Med Chem, 2012)

Legend:
[1] = target: Purine nucleoside phosphorylase (Bos taurus, UniProt P55859, F159W); test: Binding affinity to calf recombinant PNP Phe159Trp mutant expressed in Escherichia coli BL21 (DE3) by fluorimetric titration analysis
[2] = target: T1, Purine nucleoside phosphorylase (Bos taurus, UniProt P55859, F200W)
Description: Binding affinity to calf recombinant PNP Phe200Trp mutant expressed in Escherichia coli BL21 (DE3) by fluorimetric titration analysis

[3] = target: T2, Purine nucleoside phosphorylase (Bos taurus, UniProt P55859)
T2 sequence (P55859 whole entry): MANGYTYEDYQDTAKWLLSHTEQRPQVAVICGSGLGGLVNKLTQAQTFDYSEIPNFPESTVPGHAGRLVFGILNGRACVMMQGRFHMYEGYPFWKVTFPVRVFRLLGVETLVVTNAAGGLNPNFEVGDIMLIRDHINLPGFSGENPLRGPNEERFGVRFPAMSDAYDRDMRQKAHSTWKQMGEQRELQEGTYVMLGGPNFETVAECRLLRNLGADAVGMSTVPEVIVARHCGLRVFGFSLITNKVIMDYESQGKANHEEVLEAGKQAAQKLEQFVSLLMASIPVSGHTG

[4] = target: T2, Purine nucleoside phosphorylase; test: Binding affinity to calf recombinant PNP expressed in Escherichia coli BL21 (DE3) by fluorimetric titration analysis
[5] = target: T2, Purine nucleoside phosphorylase; test: Binding affinity to calf recombinant PNP expressed in Escherichia coli BL21 (DE3) by isothermal titration calorimetry/ fluorimetric titration analysis
[6] = target: T3, Purine nucleoside phosphorylase (Bos taurus) (UniProt P55859)
T3 sequence (whole entry): T2 sequence (P55859 whole entry)
Description: Inhibition of bovine PNP using 7-methylguanosine as substrate by spectrophotometric based coupled assay

[7] = target: T1, Purine nucleoside phosphorylase; test: Binding affinity to calf recombinant PNP Phe200Trp mutant expressed in Escherichia coli BL21 (DE3) by competitive binding fluorimetric analysis in presence of DFPP-DG

T1 sequence (P55859 whole entry F200W): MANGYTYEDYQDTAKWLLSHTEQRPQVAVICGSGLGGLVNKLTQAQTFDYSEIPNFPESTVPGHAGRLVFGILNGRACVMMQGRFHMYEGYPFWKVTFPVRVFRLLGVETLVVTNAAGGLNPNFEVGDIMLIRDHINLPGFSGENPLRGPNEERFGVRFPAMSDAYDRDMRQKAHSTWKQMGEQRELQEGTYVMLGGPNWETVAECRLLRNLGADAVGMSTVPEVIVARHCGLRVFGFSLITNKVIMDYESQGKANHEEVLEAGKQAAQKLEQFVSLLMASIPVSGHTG
Chain of Purine nucleoside phosphorylase (Bos taurus, UniProt P55859, F159W) (P55859 whole entry F159W): as the sequence (P55859 whole entry F200W) above, with F159W, W200F counted along it

SMILES | Kd [3] | Kieq [6] | also measured
Nc1nc2nc[nH]c2c(=O)[nH]1 [GUANINE] | 120 nM |  | Kd [1]: 3300 nM; Kd [2]: 160 nM; Kd [4]: 160 nM
C[C@@H](Cn1cnc2c(N)nc(N)nc21)OCP(=O)(O)O |  | 6 µM | Kd [7]: 860 nM
O=c1[nH]cnc2nc[nH]c12 |  | 2.5 µM | 
O=c1[nH]cnc2c([C@@H]3N[C@H](CO)[C@@H](O)[C@H]3O)c[nH]c12 [FORODESINE] | 0.023 nM |  | 

Further lines, with some results ahead:

Kd [3] | Kieq [6] | SMILES | also measured
 | 0.0068 µM | Nc1nc2c(CNCCC(F)(F)P(=O)(O)O)c[nH]c2c(=O)[nH]1 | Kd [5]: 3.6 nM
 | 4 µM | Nc1nc2[nH]cnc2c(=O)[nH]1 | 
160 nM | 7.4 µM | Nc1nc2cc[nH]c2c(=O)[nH]1 | Kd [4]: 170 nM
